# Laboratory results: ChEMBL document CHEMBL4673302, “Efficient synthesis and antitumor evaluation of 4-aminomethyl-N-arylpyrazoles: Discovery of potent and selective agents for ovarian cancer” (Bioorg Med Chem, 2021)
# Tested on: U-251
# Test: Anticancer activity against human U-251 cells assessed as cell growth inhibition measured after 48 hrs by sulforhodamine B assay
# Type: functional
# Conditions: Homo sapiens, U-251, 48 h
row,Compound,GI50 [µM]
1,Cc1ccc(-c2c(CNC(C)(C)C)c(C(=O)O)nn2-c2ccccc2)cc1,> 688
2,COc1ccc(-c2c(CNC(C)(C)C)c(C(=O)O)nn2-c2ccccc2)cc1,> 659
3,CC(C)(C)NCc1c(C(=O)O)nn(-c2ccccc2)c1-c1ccccc1,> 716
4,CC(C)(C)NCc1c(C(=O)O)nn(-c2ccc(Cl)cc2)c1-c1ccc(F)cc1,> 623

# Further lines, results first:
row,GI50 [µM],Compound
1,> 584,CC(C)(C)NCc1c(C(=O)O)nn(-c2ccc(Cl)cc2)c1-c1ccc([N+](=O)[O-])cc1
2,> 608,CCOC(=O)c1nn(-c2ccc(Cl)cc2)c(-c2ccccc2)c1CNC(C)(C)C

# Tested on: MCF7
# Test: Anticancer activity against human MCF7 cells assessed as cell growth inhibition measured after 48 hrs by sulforhodamine B assay
# Type: functional
# Conditions: Homo sapiens, MCF7, 48 h
row,Compound,GI50 [µM]
1,Cc1ccc(-c2c(CNC(C)(C)C)c(C(=O)O)nn2-c2ccccc2)cc1,> 688
2,COc1ccc(-c2c(CNC(C)(C)C)c(C(=O)O)nn2-c2ccccc2)cc1,> 659
3,CC(C)(C)NCc1c(C(=O)O)nn(-c2ccccc2)c1-c1ccccc1,> 716
4,CC(C)(C)NCc1c(C(=O)O)nn(-c2ccc(Cl)cc2)c1-c1ccc(F)cc1,270

# More lines, now with the values ahead:
row,GI50 [µM],Compound
1,550,CC(C)(C)NCc1c(C(=O)O)nn(-c2ccc(Cl)cc2)c1-c1ccc([N+](=O)[O-])cc1
2,> 608,CCOC(=O)c1nn(-c2ccc(Cl)cc2)c(-c2ccccc2)c1CNC(C)(C)C

# Tested on: 786-0
# Test: Anticancer activity against human 786-0 cells assessed as cell growth inhibition measured after 48 hrs by sulforhodamine B assay
# Type: functional
# Conditions: Homo sapiens, 786-0, 48 h
row,Compound,GI50 [µM]
1,Cc1ccc(-c2c(CNC(C)(C)C)c(C(=O)O)nn2-c2ccccc2)cc1,> 688
2,COc1ccc(-c2c(CNC(C)(C)C)c(C(=O)O)nn2-c2ccccc2)cc1,> 659
3,CC(C)(C)NCc1c(C(=O)O)nn(-c2ccccc2)c1-c1ccccc1,> 716
4,CC(C)(C)NCc1c(C(=O)O)nn(-c2ccc(Cl)cc2)c1-c1ccc(F)cc1,204

# Next, values leading:
row,GI50 [µM],Compound
1,104,CC(C)(C)NCc1c(C(=O)O)nn(-c2ccc(Cl)cc2)c1-c1ccc([N+](=O)[O-])cc1
2,> 608,CCOC(=O)c1nn(-c2ccc(Cl)cc2)c(-c2ccccc2)c1CNC(C)(C)C

# Tested on: NCI-H460
# Test: Anticancer activity against human NCI-H460 cells assessed as cell growth inhibition measured after 48 hrs by sulforhodamine B assay
# Type: functional
# Conditions: Homo sapiens, NCI-H460, 48 h
row,Compound,GI50 [µM]
1,Cc1ccc(-c2c(CNC(C)(C)C)c(C(=O)O)nn2-c2ccccc2)cc1,> 688
2,COc1ccc(-c2c(CNC(C)(C)C)c(C(=O)O)nn2-c2ccccc2)cc1,> 659
3,CC(C)(C)NCc1c(C(=O)O)nn(-c2ccccc2)c1-c1ccccc1,> 716
4,CC(C)(C)NCc1c(C(=O)O)nn(-c2ccc(Cl)cc2)c1-c1ccc(F)cc1,> 623

# Continued, values first:
row,GI50 [µM],Compound
1,141,CC(C)(C)NCc1c(C(=O)O)nn(-c2ccc(Cl)cc2)c1-c1ccc([N+](=O)[O-])cc1
2,> 608,CCOC(=O)c1nn(-c2ccc(Cl)cc2)c(-c2ccccc2)c1CNC(C)(C)C

# Tested on: PC-3
# Test: Anticancer activity against human PC-3 cells assessed as cell growth inhibition measured after 48 hrs by sulforhodamine B assay
# Type: functional
# Conditions: Homo sapiens, PC-3, 48 h
row,Compound,GI50 [µM]
1,Cc1ccc(-c2c(CNC(C)(C)C)c(C(=O)O)nn2-c2ccccc2)cc1,> 688
2,COc1ccc(-c2c(CNC(C)(C)C)c(C(=O)O)nn2-c2ccccc2)cc1,> 659
3,CC(C)(C)NCc1c(C(=O)O)nn(-c2ccccc2)c1-c1ccccc1,> 716
4,CC(C)(C)NCc1c(C(=O)O)nn(-c2ccc(Cl)cc2)c1-c1ccc(F)cc1,> 623

# More lines, now with the values ahead:
row,GI50 [µM],Compound
1,> 584,CC(C)(C)NCc1c(C(=O)O)nn(-c2ccc(Cl)cc2)c1-c1ccc([N+](=O)[O-])cc1
2,> 608,CCOC(=O)c1nn(-c2ccc(Cl)cc2)c(-c2ccccc2)c1CNC(C)(C)C

# Tested on: OVCAR-3
# Test: Anticancer activity against human OVCAR-3 cells assessed as cell growth inhibition measured after 48 hrs by sulforhodamine B assay
# Type: functional
# Conditions: Homo sapiens, OVCAR-3, 48 h
row,Compound,GI50 [µM]
1,Cc1ccc(-c2c(CNC(C)(C)C)c(C(=O)O)nn2-c2ccccc2)cc1,283
2,COc1ccc(-c2c(CNC(C)(C)C)c(C(=O)O)nn2-c2ccccc2)cc1,> 659
3,CC(C)(C)NCc1c(C(=O)O)nn(-c2ccccc2)c1-c1ccccc1,> 716
4,CC(C)(C)NCc1c(C(=O)O)nn(-c2ccc(Cl)cc2)c1-c1ccc(F)cc1,116

# Now from value to compound:
row,GI50 [µM],Compound
1,162,CC(C)(C)NCc1c(C(=O)O)nn(-c2ccc(Cl)cc2)c1-c1ccc([N+](=O)[O-])cc1
2,> 608,CCOC(=O)c1nn(-c2ccc(Cl)cc2)c(-c2ccccc2)c1CNC(C)(C)C

# Tested on: HT-29
# Test: Anticancer activity against human HT-29 cells assessed as cell growth inhibition measured after 48 hrs by sulforhodamine B assay
# Type: functional
# Conditions: Homo sapiens, HT-29, 48 h
row,Compound,GI50 [µM]
1,Cc1ccc(-c2c(CNC(C)(C)C)c(C(=O)O)nn2-c2ccccc2)cc1,> 688
2,COc1ccc(-c2c(CNC(C)(C)C)c(C(=O)O)nn2-c2ccccc2)cc1,> 659
3,CC(C)(C)NCc1c(C(=O)O)nn(-c2ccccc2)c1-c1ccccc1,> 716
4,CC(C)(C)NCc1c(C(=O)O)nn(-c2ccc(Cl)cc2)c1-c1ccc(F)cc1,> 623

# Further lines, results first:
row,GI50 [µM],Compound
1,> 584,CC(C)(C)NCc1c(C(=O)O)nn(-c2ccc(Cl)cc2)c1-c1ccc([N+](=O)[O-])cc1
2,336,CCOC(=O)c1nn(-c2ccc(Cl)cc2)c(-c2ccccc2)c1CNC(C)(C)C

# Tested on: K562
# Test: Anticancer activity against human K562 cells assessed as cell growth inhibition measured after 48 hrs by sulforhodamine B assay
# Type: functional
# Conditions: 48 h
row,Compound,GI50 [µM]
1,CCOC(=O)c1nn(-c2ccc(Cl)cc2)c(-c2ccccc2)c1CNC(C)(C)C,64.5

# Same assay, conditions: Homo sapiens, K562, 48 h
row,Compound,GI50 [µM]
1,Cc1ccc(-c2c(CNC(C)(C)C)c(C(=O)O)nn2-c2ccccc2)cc1,> 688
2,COc1ccc(-c2c(CNC(C)(C)C)c(C(=O)O)nn2-c2ccccc2)cc1,> 659
3,CC(C)(C)NCc1c(C(=O)O)nn(-c2ccccc2)c1-c1ccccc1,> 716
4,CC(C)(C)NCc1c(C(=O)O)nn(-c2ccc(Cl)cc2)c1-c1ccc([N+](=O)[O-])cc1,158
5,CC(C)(C)NCc1c(C(=O)O)nn(-c2ccc(Cl)cc2)c1-c1ccc(F)cc1,> 623

# Tested on: not listed separately
# Test: Cytotoxicity against human HaCaT cells assessed as cell growth inhibition measured after 48 hrs by sulforhodamine B assay
# Type: cell-based
# Conditions: HaCaT cells
row,Compound,GI50 at 48 h [µM]
1,Cc1ccc(-c2c(CNC(C)(C)C)c(C(=O)O)nn2-c2ccccc2)cc1,> 688
2,COc1ccc(-c2c(CNC(C)(C)C)c(C(=O)O)nn2-c2ccccc2)cc1,> 659
3,CC(C)(C)NCc1c(C(=O)O)nn(-c2ccccc2)c1-c1ccccc1,> 716
4,CC(C)(C)NCc1c(C(=O)O)nn(-c2ccc(Cl)cc2)c1-c1ccc([N+](=O)[O-])cc1,> 584
5,CCOC(=O)c1nn(-c2ccc(Cl)cc2)c(-c2ccccc2)c1CNC(C)(C)C,> 608
6,CC(C)(C)NCc1c(C(=O)O)nn(-c2ccc(Cl)cc2)c1-c1ccc(F)cc1,28.7
